Among the data in patent EP1806348A2, “Pyrido (2,3-D)Pyrimidines as inhibitors of cellular proliferation” (Warner-Lambert Company LLC, priority 1997, dated 1998) are IC50 and inhibition values, retold here.

Holding throughout (assay type): biochemical
One assay addresses cdk2/cyclinA (Homo sapiens, UniProt P24941). In words: Cyclin-dependent kinase assay (cdk2/cyclinA). Conditions: Table 1. The method, then:
(§1) All components except the ATP were added to the wells, and the plate was placed on a plate mixer for 2 minutes. […] The reaction was terminated by addition of 0.1 mL of 20% TCA. The plate was kept at 4°C for at least 1 hour to allow the substrate to precipitate. The wells were then washed five times with 0.2 mL of 10% TCA and ^32P incorporation determined with a beta plate counter (Wallac Inc., Gaithersburg, MD).

For another assay, the target named is cdc2/cyclinB (Homo sapiens, UniProt P06493). Description: Cyclin-dependent kinase assay (cdc2/cyclinB). Conditions: Table 1; read-out: cdk1/B IC50. The method, then:
as §1

In the next assay the target is cdk2/cyclinE (Homo sapiens, UniProt P24941). Description: Cyclin-dependent kinase assay (cdk2/cyclinE). Conditions: Table 1; read-out: cdk2/E IC50. The method, then:
as §1

The target of the next assay is cdk4/D (Homo sapiens, UniProt P11802). In words: Cyclin-dependent kinase 4 (cdk4) enzyme assay, 32P incorporation into retinoblastoma. Conditions: for inhibition at 40 µM: read-out: cdk4/D % inhibition at 40 µM. The method, then: A typical assay, for instance, measures inhibitory activity against the cyclin D dependent kinase 4 enzyme (cdk4/D). […] The cdk 4 assay was carried out as follows.
cdk4/D, sequence (P11802 whole entry): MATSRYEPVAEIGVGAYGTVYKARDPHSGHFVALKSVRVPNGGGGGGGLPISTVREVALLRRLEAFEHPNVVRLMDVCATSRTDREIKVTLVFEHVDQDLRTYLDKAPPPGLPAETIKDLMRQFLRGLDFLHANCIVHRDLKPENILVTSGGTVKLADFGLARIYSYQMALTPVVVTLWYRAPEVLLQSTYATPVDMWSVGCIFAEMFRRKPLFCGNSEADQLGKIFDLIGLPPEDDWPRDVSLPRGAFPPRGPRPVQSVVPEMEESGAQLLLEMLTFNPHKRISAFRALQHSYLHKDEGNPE
cdk4/D, sequence (P24385 whole entry, further chain): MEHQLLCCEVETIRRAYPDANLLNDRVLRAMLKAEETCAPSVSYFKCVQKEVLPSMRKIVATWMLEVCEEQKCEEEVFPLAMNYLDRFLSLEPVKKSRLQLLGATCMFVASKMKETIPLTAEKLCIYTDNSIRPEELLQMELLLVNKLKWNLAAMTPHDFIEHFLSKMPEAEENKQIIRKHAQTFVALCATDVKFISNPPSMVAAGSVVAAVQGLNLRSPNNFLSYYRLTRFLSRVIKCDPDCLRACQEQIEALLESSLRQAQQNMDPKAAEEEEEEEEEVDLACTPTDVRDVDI
All components except the ATP were added to the wells, and the plate was placed on a plate mixer for 2 minutes. […] The reaction was terminated by addition of 0.1 mL of 20% trichloroacetic acid (TCA). The plate was kept at 4°C for at least 1 hour to allow the substrate to precipitate. The wells were then washed five times with 0.2 mL of 10% TCA and ^32P incorporation was determined with a beta plate counter (Wallac Inc., Gaithersburg, MD).

Setting [1] is: Table 1, 25 µM ATP, retinoblastoma substrate.

Read-outs that look alike come from different tables or passages of the source.

cdc2/cyclinB, sequence (P06493 whole entry): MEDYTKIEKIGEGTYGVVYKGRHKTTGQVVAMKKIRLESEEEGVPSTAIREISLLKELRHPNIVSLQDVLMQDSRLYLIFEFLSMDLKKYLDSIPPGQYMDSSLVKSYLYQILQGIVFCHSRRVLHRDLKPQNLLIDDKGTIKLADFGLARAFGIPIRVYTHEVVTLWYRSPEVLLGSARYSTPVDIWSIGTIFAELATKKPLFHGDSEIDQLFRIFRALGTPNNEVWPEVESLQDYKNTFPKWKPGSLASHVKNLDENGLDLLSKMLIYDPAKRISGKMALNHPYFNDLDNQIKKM
cdc2/cyclinB, sequence (P14635 whole entry, further chain): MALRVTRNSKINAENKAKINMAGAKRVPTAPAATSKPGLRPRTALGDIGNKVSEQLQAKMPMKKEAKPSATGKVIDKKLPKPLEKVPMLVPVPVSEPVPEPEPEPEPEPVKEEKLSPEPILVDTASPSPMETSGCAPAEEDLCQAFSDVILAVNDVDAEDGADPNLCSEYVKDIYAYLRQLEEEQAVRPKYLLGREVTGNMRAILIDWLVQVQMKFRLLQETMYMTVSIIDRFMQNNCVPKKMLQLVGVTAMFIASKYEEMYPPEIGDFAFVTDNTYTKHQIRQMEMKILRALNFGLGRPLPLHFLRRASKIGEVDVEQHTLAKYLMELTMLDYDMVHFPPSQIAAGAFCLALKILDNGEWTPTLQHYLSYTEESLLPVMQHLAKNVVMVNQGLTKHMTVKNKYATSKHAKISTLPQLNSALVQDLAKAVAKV

Turning to `O=c1ccc2cnc(Nc3ccccc3)nc2[nH]1` [Example 32, 2-Phenylamino-8H-pyrido[2,3-d]pyrimidin-7-one], the results for the IC50 at cdk2/cyclinA, at cdc2/cyclinB and at cdk2/cyclinE were 4660 nM, 32600 nM and 12800 nM, respectively.
As for `Cn1c(=O)ccc2cnc(NCCc3ccccn3)nc21` [Example 66, 8-Methyl-2-(2-pyridin-2-yl-ethylamino)-8H-pyrido[2,3-d]pyrimidin-7-one], the IC50 at cdk4/D (setting [1]) came out at 45000 nM.
With `CCn1c(=O)ccc2cnc(NCc3ccccc3)nc21` [Example 44, 2-Benzylamino-8-ethyl-8H-pyrido[2,3-d]pyrimidin-7-one], the IC50 at cdk2/cyclinA was 6460 nM; on cdc2/cyclinB it was 16700 nM.
The compound `COc1ccc(Cn2c(=O)ccc3cnc(Nc4ccccc4)nc32)cc1` [Example 58, 8-(4-Methoxybenzyl)-2-phenylamino-8H-pyrido[2,3-d]pyrimidin-7-one] showed an IC50 against cdk4/D (setting [1]) of 10000 nM.
Consider `CCn1c(=O)ccc2cnc(Nc3cccc(OC(F)(F)C(F)F)c3)nc21` [Example 54, 8-Ethyl-2-[3-(1,1,2,2-tetrafluoroethoxy)-phenylamino]-8H-pyrido[2,3-d]pyrimidin-7-one], for which the IC50 against cdk4/D (setting [1]) came to 7830 nM; at cdk2/cyclinA, 238 nM; on cdc2/cyclinB, 91 nM; at cdk2/cyclinE, 1200 nM.
`CCn1c(=O)ccc2cnc(Nc3cccc(F)c3OC)nc21` [Example 91, 8-Ethyl-2-(3-fluoro-2-methoxyphenylamino)-8H-pyrido[2,3-d]pyrimidin-7-one]: the IC50 at cdk4/D (setting [1]) was determined as 9000 nM.
Consider `CCN(CC)c1ccc(Nc2ncc3ccc(=O)n(CC)c3n2)cc1` [Example 78, 2-(4-Diethylamino-phenylamino)-8-ethyl-8H-pyrido[2,3-d]pyrimidin-7-one], for which the IC50 at cdk4/D (setting [1]) is 1300 nM; on cdk2/cyclinA it was 2240 nM; on cdc2/cyclinB it was 740 nM; on cdk2/cyclinE, 2940 nM.
For `CC(C)n1c(=O)ccc2cnc(Nc3ccccc3)nc21` [Example 43, 8-Isopropyl-2-phenylamino-8H-pyrido[2,3-d]pyrimidin-7-one], the IC50 against cdk4/D (setting [1]) stood at 150 nM; against cdk2/cyclinA it was 31 nM; at cdc2/cyclinB it was 440 nM; at cdk2/cyclinE, 126 nM.
`CCC(C)n1c(=O)ccc2cnc(Nc3ccccc3)nc21` (centres unmarked) [Example 85, 8-sec-Butyl-2-phenylamino-8H-pyrido[2,3-d]pyrimidin-7-one] registered an IC50 against cdk4/D (setting [1]) of 200 nM.
On to `CCNc1nc(Nc2ccccc2)ncc1C=CC#N` [Example 72, 3-(4-Ethylamino-2-phenylamino-pyrimidin-5-yl)acrylonitrile], for which the inhibition at 40 µM on cdk4/D was 18%.
With `CCn1c(=O)ccc2cnc(Nc3ccc(OC)cc3)nc21` [Example 51, 8-Ethyl-2-(4-methoxyphenylamino)-8H-pyrido[2,3-d]pyrimidin-7-one], the IC50 against cdk4/D (setting [1]) stood at 600 nM; against cdk2/cyclinA it was 134 nM; at cdc2/cyclinB it was 665 nM; on cdk2/cyclinE, 422 nM.
The compound `CCn1c(=O)ccc2cnc(Nc3cccc(F)c3)nc21` [Example 89, 8-Ethyl-2-(3-fluorophenylamino)-8H-pyrido[2,3-d]pyrimidin-7-one] came in with an IC50 at cdk4/D (setting [1]) of 1400 nM.
On to `CCn1c(=O)ccc2cnc(NC(C)C)nc21` [Example 47, 8-Ethyl-2-isopropylamino-8H-pyrido[2,3-d]pyrimidin-7-one], for which the IC50 against cdk4/D (setting [1]) came out at 3700 nM; on cdc2/cyclinB, 3550 nM.
Turning to `CCn1c(=O)ccc2cnc(Nc3ccc(F)cc3)nc21` [Example 88, 8-Ethyl-2-(4-fluorophenylamino)-8H-pyrido[2,3-d]pyrimidin-7-one], the IC50 against cdk4/D (setting [1]) is 1300 nM; at cdk2/cyclinA, 440 nM; on cdc2/cyclinB, 2070 nM; on cdk2/cyclinE, 280 nM.
For the compound `CCn1c(=O)ccc2cnc(NC(C)(C)C)nc21` [Example 46, 2-tert-Butylamino-8-ethyl-8H-pyrido[2,3-d]pyrimidin-7-one], the IC50 at cdk4/D (setting [1]) turned out to be 5300 nM; on cdc2/cyclinB, 3410 nM.
As to `CCNc1ncc2ccc(=O)n(CC)c2n1` [Example 45, 8-Ethyl-2-ethylamino-8H-pyrido[2,3-d]pyrimidin-7-one], the IC50 is 12000 nM against cdk4/D (setting [1]), 2460 nM against cdk2/cyclinA, 9230 nM at cdc2/cyclinB and 3930 nM at cdk2/cyclinE.
Take `O=c1ccc2cnc(Nc3ccccc3)nc2n1CCCOc1ccccc1` [Example 87, 8-(3-Phenoxypropyl)-2-phenylamino-8H-pyrido[2,3-d]pyrimidin-7-one]: the IC50 on cdc2/cyclinB turned out to be 1080 nM.
On cdk4/D (setting [1]), `CCn1c(=O)ccc2cnc(Nc3ccc(OC)c(F)c3)nc21` [Example 90, 8-Ethyl-2-(3-fluoro-4-methoxyphenylamino)-8H-pyrido[2,3-d]pyrimidin-7-one] came in with an IC50 of 1000 nM.
As for `O=c1ccc2cnc(Nc3ccccc3)nc2n1C1CCCCCC1` [Example 155, 8-Cycloheptyl-2-phenylamino-8H-pyrido[2,3-d]pyrimidin-7-one], the IC50 came out at 182 nM on cdk4/D (setting [1]), 9 nM at cdk2/cyclinA, 65 nM at cdc2/cyclinB and 24 nM at cdk2/cyclinE.
On cdk4/D (setting [1]), `O=c1ccc2cnc(Nc3ccccc3)nc2n1CC1CO1` (centres unmarked) [Example 39, 8-Oxiranylmethyl-2-phenylamino-8H-pyrido[2,3-d]pyrimidin-7-one] showed an IC50 of 5000 nM.
The same measure, in the same setting: the result for `CCn1c(=O)ccc2cnc(Nc3ccc(-c4ccccc4)cc3)nc21` [Example 49, 2-(Biphenyl-4-ylamino)-8-ethyl-8H-pyrido[2,3-d]pyrimidin-7-one] reads 2000 nM.
The same measure, in the same setting: under `CC(C)Nc1ncc2ccc(=O)n(C)c2n1` [Example 67, 2-Isopropylamino-8-methyl-8H-pyrido[2,3-d]pyrimidin-7-one] stands 25000 nM.
For `CCn1c(=O)ccc2cnc(NC3CCCCC3)nc21` [Example 48, 2-Cyclohexylamino-8-ethyl-8H-pyrido[2,3-d]pyrimidin-7-one], the IC50 on cdk4/D (setting [1]) is 3300 nM; on cdk2/cyclinA it was 230 nM; at cdc2/cyclinB, 2610 nM; at cdk2/cyclinE, 592 nM.
`CCN1C(=O)CCc2cnc(Nc3ccccc3)nc21` [Example 69, 8-Ethyl-2-phenylamino-5,8-dihydro-6H-pyrido[2,3-d]pyrimidin-7-one] returned an IC50 at cdk4/D (setting [1]) of 4300 nM.
Take `CCNc1nc(Nc2ccccc2)ncc1CCC(=O)OCC` [Example 68, 3-(4-Ethylamino-2-phenylamino-pyrimidin-5-yl)propionic acid ethyl ester]: the IC50 against cdk4/D (Table 2, Formula II compounds) came to 90000 nM. In addition, the inhibition at 40 µM on cdk4/D (at 40 µM, Table 2) came out at 37%.
With `CCNc1ncc2ccc(=O)n(-c3ccccc3)c2n1` [Example 100, 2-Ethylamino-8-phenyl-8H-pyrido[2,3-d]pyrimidin-7-one], the IC50 against cdk4/D (setting [1]) was determined as 19000 nM.
Take `Cn1c(=O)ccc2cnc(NCc3ccccc3)nc21` [Example 63, 2-Benzylamino-8-methyl-8H-pyrido[2,3-d]pyrimidin-7-one]: the IC50 came out at 38100 nM against cdk2/cyclinA and 21600 nM at cdc2/cyclinB.
For the compound `CCn1c(=O)c(C)cc2cnc(Nc3ccccc3)nc21` [Example 83, 8-Ethyl-6-methyl-2-phenylamino-8H-pyrido[2,3-d]pyrimidin-7-one], the IC50 against cdk4/D (setting [1]) stood at 1800 nM.
The same measure, in the same setting: under `CCCCNc1ncc2ccc(=O)n(C)c2n1` [Example 64, 2-Butylamino-8-methyl-8H-pyrido[2,3-d]pyrimidin-7-one] stands 40000 nM; under `CCn1c(=O)ccc2cnc(Nc3ccc(OCCOC)cc3)nc21` [Example 57, 8-Ethyl-2-[4-(2-methoxyethoxy)phenylamino]-8H-pyrido[2,3-d]pyrimidin-7-one], 800 nM.
In turn, `COCn1c(=O)ccc2cnc(Nc3ccccc3)nc21` [Example 37, 8-Methoxymethyl-2-phenylamino-8H-pyrido[2,3-d]pyrimidin-7-one] returned an IC50 at cdk4/D (setting [1]) of 4200 nM.
Consider `CCNc1nc(Nc2ccccc2)ncc1C(C)=CC(=O)OCC` [Example 73, 3-(4-Ethylamino-2-phenylamino-pyrimidin-5-yl)-but-2-enoic acid ethyl ester], for which the inhibition at 40 µM on cdk4/D (at 40 µM, Table 2) stood at 58%.
With `CCn1c(=O)ccc2cnc(Nc3ccc(N4CCOCC4)cc3)nc21` [Example 79, 8-Ethyl-2-(4-morpholin-4-yl-phenylamino)-8H-pyrido[2,3-d]pyrimidin-7-one], on cdk4/D (setting [1]), the IC50 amounted to 300 nM.
The same measure, in the same setting: under `COCCn1c(=O)ccc2cnc(Nc3ccccc3)nc21` [Example 86, 8-(2-Methoxyethyl)-2-phenylamino-8H-pyrido[2,3-d]pyrimidin-7-one] stands 2400 nM.
Compound `CCn1c(=O)ccc2cnc(Nc3ccc(OCc4ccccc4)cc3)nc21` [Example 56, 2-Benzyloxyphenylamino-8-ethyl-8H-pyrido[2,3-d]pyrimidin-7-one] showed an IC50 on cdk4/D (setting [1]) of 25000 nM.
The same measure, in the same setting: under `CCn1c(=O)ccc2cnc(Nc3ccc(O)cc3)nc21` [Example 55, 8-Ethyl-2-(4-hydroxyphenylamino)-8H-pyrido[2,3-d]pyrimidin-7-one] stands 600 nM.
The compound `CCC(CC)n1c(=O)ccc2cnc(Nc3ccccc3)nc21` [Example 74, 8-(1-Ethylpropyl)-2-phenylamino-8H-pyrido[2,3-d]pyrimidin-7-one] came in with an IC50 at cdk4/D (setting [1]) of 141 nM.
